From US20040033944A1, “Method of treating erectile dysfunction” (priority 1999, published 2004)
Where two headings read alike, the source gives them in different places.

Tests used:
[1] = test system: corpora cavernosa smooth muscle; settings: hypercholesterolemic rabbits, three weekly intracavernosal injections of VEGF
Method: Fifteen male New Zealand White rabbits weighing 2 to 2.5 kg were used in a total of two arms in the study. […] Random serum total cholesterol levels were measured at the beginning of the study and after four weeks of the 1% cholesterol diet. At the end of four weeks, each rabbit underwent total penectomy and then was sacrificed. Each penis yielded two strips of tissue with a small amount of erectile tissue being placed in neutral buffered formalin 10%. The strips were suspended in tissue baths, and isometric tension studies were performed. Dose-response curves for norepinephrine were generated first in each strip to assess adrenergic-mediated cavernosal smooth muscle contraction. Next, dose-response curves for histamine were generated to assess histamine receptor mediated contraction of cavernosal smooth muscle. Submaximal contraction was then produced with 10^−3 concentration of norepinephrine and dose-response curves were then generated to evaluate endothelial-dependent (acetylcholine) smooth muscle relaxation. Once again, a submaximal contraction was produced using 10^−5 concentration of norepinephrine and dose response curves were then generated to evaluate endothelial-independent (sodium nitroprusside) smooth muscle relaxation.
Tissue. Cavernosal tissue procurement was performed under general anesthesia induced with Ketamine 50 mg/kg SC (Ketaset, Bristol Laboratories, Syracuse, N.Y.) and Xylazine 30 mg/kg SC (Rompun, Mobay Corp., Shawnee, Kans.). The penis was excised en bloc and placed in warm Krebs solution, where the corpora cavernosa were sharply dissected from the tunica albuginea producing a strip (approximately 0.3×0.3×0.7 cm.) from each corpus. The strips were then mounted in the oxygen tissue baths. After tissue collection, the rabbits were euthanized with an overdose of intravenous sodium pentobarbitol (100 mg/kg to effect). Care was taken throughout the procedure to minimize tissue manipulation.
Tissue Chambers. Each cavernosal strip was placed in a 25 ml tissue bath (Kent Scientific Corp.. Litchfield, Conn.). One end was hooked to a tissue holder and the other end w as hooked to a force transducer (FTO3, Grass Instruments, Quincy, Mass.) for determination of isometric tension. The bath was filled with a modified Kreb's physiologic salt solution with the following millimolar composition: NaCl 122, KCl 4.7, MgCl2 1.2, CaCl2 2.5, NaHCO3 15.4, KH2PO4 1.2. and glucose 5.5. A circulating water bath kept tissue chamber temperatures at 37C. Continuous aeration with 95% oxygen and 5% carbon dioxide maintained a pH of 7.4.
Optimal isometric tension determination. Each of the force transducers was connected to a transducer positioner enabling preload tension adjustment. Following suspension in the tissue chambers, the tension was periodically adjusted (at least every fifteen minutes) until the strip equilibrated at 0.5 gm. […] The optimal preload tension was then determined by contracting the tissue with 60 mM KCl Krebs solution (prepared by substituting 60 mM of sodium with equimolar amounts of potassium in Krebs-PSS solution) at increasing levels of preload (0.5 gm. increments). […] All subsequent testing was then performed at the determined optimal resting tension for each strip: Monitoring of tension was done with a four-channel polygraph (Grass 7D, Grass Instruments).
Isometric tension studies. The tissue was washed with Kreb's solution every fifteen minutes after each study until the tissue returned to baseline (at least one hour). Dose response curves for norepinephrine were obtained by cumulative addition of norepinephrine (10^−9 to 10^−4) in logarithmic increments.

[2] = test system: trabecular smooth muscle content of corporal tissue; settings: cholesterol-fed rabbits
Method: (§1) Animals: Male New Zealand White rabbits weighing 2.5-3 kg were fed either a normal rabbit diet (n=12) or a 1% cholesterol diet (n=12) (Harland Teklab, Madison, Wis.) for a total of 7.5 weeks. […] Ten days after the injection, the rabbits were euthanized and underwent penectomy with meticulous dissection of the corpora cavernosa from the tunica albuginia. Total serum cholesterol was determined using the enzymatic method prior to the initiation of the experimental diet and on serum samples drawn immediately prior to the procedure. Animal care and handling complied with published Guidelines (Institute of Laboratory Animal Resources, Commission on Life Sciences, National Research Council. Guide for the Care and Use of Laboraiton Animals. Washington: National Academy Press (1996)).
Statistical evaluation. Each treatment group contained 6 animals (corporal strip n=12). Data are expressed as the mean±standard error of the mean (SEM). The responses of strips from each treatment group to acetylcholine or sodium nitroprusside were compared using the independent samples T-Test. […] The ED50 (sensitivity) and the maximal response were the principal outcomes assessed for each agent, and adjusting for multiple comparisons each outcome was assessed at the 0.025 level. […]

VEGF in corporal tissue = test system: VEGF in corporal tissue
Method: Animals: 36 New Zealand White rabbits were fed either a normal rabbit diet (n=12) or a 1% cholesterol diet (n=24) (Harland Teklab, Madison, Wis.) for a total of 7.5 weeks. […] Ten days after the injection, the rabbits were euthanized and underwent penectomy with meticulous dissection of the corpora cavernosa from the tunica albuginia. Total serum cholesterol was determined prior to the initiation of the experimental diet and immediately prior to the procedure.
Frozen corporal tissues were sonicated in 50 mM Tris radioimmunoprecipation assay buffer for 1 minute for protein isolation. […] The samples were quantified with a Molecular Devices Kinetic microplate reader using Apple SoftMax software. One ELISA was performed for each animal in each treatment group.
Statistical evaluation. Data are expressed as the mean standard error of the mean (SEM). […] Statistical significance was determined at the 0.05 level.

[3] = test system: VEGF protein expression in corporal tissue; settings: for VEGF immunoexpression: IC VEGF 0.9 mg, mean±SEM
Method: as §1
(§2) Statistical evaluation. Each treatment group contained 6 animals (corporal strip n=12). Data are expressed as the mean±standard error of the mean (SEM). The responses of strips from each treatment group to acetylcholine or sodium nitroprusside were compared using the independent samples T-Test. […] The ED50 (sensitivity) and the maximal response were the principal outcomes assessed for each agent, and adjusting for multiple comparisons each outcome was assessed at the 0.025 level. Secondary outcomes, including cholesterol level, and the ED25 and the ED75 for each agent were tested at the 0.05 level without adjustment for multiple comparisons.
(§3) The route of administration can affect the efficacy of treatments for erectile dysfunction, as is seen in the difference between intrauretheral and intracavernosal alprostadil. […] Ten days after injection isometric tension studies were performed on corporal tissue. Sensitivity and maximal relaxation to acetylcholine (ACH) and sodium nitroprusside (SNP) were compared between treatment groups.
(§4) Ten days after injection, their corpora cavernosa were harvested, and isometric tension studies were performed. Relaxation to acetylcholine (ACH) and sodium nitroprusside (SNP) was compared within each group.

adult rabbit penis = settings: intracavernosal injections of VEGF
corporal smooth muscle = settings: for Acetylcholine ED50 (−Log (M)) / Sodium Nitroprusside ED50 (−Log (M)): 10 days after injection, mean SEM
Method: as §1
Isometric tension studies. Two corporal strips from each animal were suspended in 5 ml capacity organ baths containing Krebs physiological salt solution (122 mmol/liter NaCl. 4.7 mmol/liter KCl, 1.2 mmol/liter MgCl2, 2.5 mmol/liter CaCl2, 15.4 mmol/liter NaHCO3, 1.2 mmol/liter KH2PO4, and 5.5 mmol/liter glucose) maintained at 37° C. and oxygenated with 95% O2 and 5% CO2. Strips were attached to an adjustable force transducer and isometric responses were recorded on a multi-channel polygraph (Myograph F-60; Physiograph MK111-S; Narco Bio-Systems, Houston, Tex.). […] All subsequent testing was then performed at the optimal resting tension for each strip. Strips were sub-maximally pre-contracted with 10^−5 M norepinephrine, and after a contractile plateau was reached, acetylcholine (10^−8 to 10^−3 M) or sodium nitroprusside (10^−8 to 10^−4 M) was added cumulatively in logarithmic increments. Relaxation in response to each agent is expressed as a percentage of the active tension generated by the 10^−5 M dose of norepinephrine and converted to percentage of maximal response at each dose. These values were plotted against the negative logarithm of the agonist dose to produce relaxation dose-response curves. Logistic regression analysis with logit transformation was performed on the cumulative dose response curves from each treatment group to determine the ED25. ED50 and ED75 for each agent (Finney, Statistical Method in Biological Assay (3 ed.). London: Charles Griffin and Company LTD, p. 349-369 (1978), Kim et al, J Urol 151:198-205 (1994)).
as §2, §3, §4
Animals: 36 New Zealand White rabbits were fed either a normal rabbit diet (n=12) or a 1% cholesterol diet (n=24) (Harland Teklab, Madison, Wis.) for a total of 7.5 weeks.

[4] = cholesterol-fed rabbits, IV VEGF 0.9 mg vs vehicle
[5] = cholesterol-fed rabbits, intracavernosal 0.9 mg VEGF at week 6, 10 days after injection, mean±SEM
[6] = cholesterol-fed rabbits, single intravenous bolus VEGF 0.9 mg vs vehicle

VEGF was tested, and the “Acetylcholine Percent Maximal Relaxation” value [1] was 94.5±8.41%, the “Sensitivity to Acetylcholine ED25” value [1] was −5.48 ± 0.33 and the “Sensitivity to Acetylcholine ED75” value [1] was −3.50 ± 0.41. For the same substance, the “Sensitivity to Sodium Nitroprusside ED75” value [1] was −5.52 ± 0.18, the “Sodium Nitroprusside Percent Maximal Relaxation” value [1] was 145 ± 8.26% and the “smooth muscle content, effect of VEGF treatment” value ([2]; IC VEGF 0.9 mg vs vehicle) was “not affected”. The “trabecular smooth muscle content” value ([2]; IC VEGF 0.9 mg, relative to normal diet, vehicle-treated = 1.0, mean±SEM) was 0.82±0.016 arbitrary units, the “VEGF ELISA optical density (OD) minus background” value (VEGF in corporal tissue; cholesterol-fed animals treated with VEGF (IC)) was 0.168 and the “VEGF ELISA optical density (OD)” value (VEGF in corporal tissue; cholesterol-fed animals, IV VEGF administration) was 0.128. The VEGF immunoexpression ([3]; cholesterol-fed animals) was 19.67±1.38 arbitrary units, the “VEGF protein immunoexpression, effect of IV VEGF” value ([3]; cholesterol-fed animals, IV VEGF 0.9 mg vs vehicle) was “augmented” and the VEGF immunoexpression ([3]; normal diet animals) was 37.6±1.12 arbitrary units. The “VEGF expression, effect of VEGF therapy” value ([3]; single intracavernosal VEGF 0.9 mg vs vehicle) was “augmented”, the tumescence (adult rabbit penis) was “approximately 80%” and the “Acetylcholine ED50 (−Log (M))” value (corporal smooth muscle; Cholesterol / IC VEGF 0.9 mg) was 4.94 0.25 −Log (M). The “Sodium Nitroprusside ED50 (−Log (M))” value (corporal smooth muscle; Cholesterol / IC VEGF 0.9 mg) was 6.36 0.16 −Log (M), the “Acetylcholine ED50 (−Log (M))” value (corporal smooth muscle; Cholesterol / IV VEGF 0.9 mg) was 6.33 0.40 −Log (M) and the “Sodium Nitroprusside ED50 (−Log (M))” value (corporal smooth muscle; Cholesterol / IV VEGF 0.9 mg) was 6.93 0.25 −Log (M). The “endothelium-dependent (acetylcholine) smooth muscle relaxation, effect of VEGF treatment” value (corporal smooth muscle; cholesterol-fed rabbits, IC VEGF 0.9 mg vs vehicle) was “not affected”, the “SNP-mediated, direct smooth muscle relaxation, effect of IV VEGF treatment” value (corporal smooth muscle; [4]) was “significantly improved” and the “endothelium-dependent smooth muscle relaxation, effect of IV VEGF treatment” value (corporal smooth muscle; [4]) was “augmented”. For the same substance, the “maximal relaxation to acetylcholine” value (corporal smooth muscle; [5]) was 78.6±6.2 grams, the “maximal relaxation to sodium nitroprusside” value (corporal smooth muscle; [5]) was 113.9±6.3 grams and the “sensitivity (ED50) to acetylcholine relaxation” value (corporal smooth muscle; [5]) was 4.94±0.25 (−Log)(M). The “sensitivity to sodium nitroprusside relaxation at ED50” value (corporal smooth muscle; [5]) was 6.36±0.16 (−Log)(M), the “sodium nitroprusside relaxation ED75” value (corporal smooth muscle; [5]) was 5.75±0.16 (−Log)(M) and the “endothelium dependent (ACH-mediated) maximal corporal smooth muscle relaxation, effect of VEGF” value (corporal smooth muscle; [6]) was “significantly augmented”. The “endothelium independent (SNP-mediated) maximal corporal smooth muscle relaxation, effect of VEGF” value (corporal smooth muscle; [6]) was “significantly augmented”, the “sensitivity (ED50) to ACH, effect of VEGF” value (corporal smooth muscle; [6]) was “enhanced” and the “sensitivity (ED50) to SNP, effect of VEGF” value (corporal smooth muscle; [6]) was “enhanced”.
